Results on 1 compound are retold here after patent US20200383946A1, “LIPOIC ACID FORMULATIONS” (Aciont Inc., priority 2019, published 2020).

The structures appear in SMILES notation.

A short description of this data set: physchem. Particulars: aqueous buffer, solubility of DHLA. The data set is classed as physicochemical. An excerpt: Dihydrolipoic acid (DHLA) was obtained from Sigma (Cat #T8260).
Again, the PBS helped maintain the pH within a suitable pH range.

A word on the solubility: it is how much of the substance goes into solution per volume.

As for `O=C(O)CCCC[C@@H](S)CCS` (racemic) [DHLA, Dihydrolipoic acid], the solubility is above 76 mg/mL.
